This passage reports IC50 results from patent US11739098B2 (BRISTOL-MYERS SQUIBB COMPANY, priority 2017, dated 2023).

Common to all, as to type: cell-based
One test addresses T1, human TLR9 (Homo sapiens, UniProt Q9NR96).
T1 construct: host or cells: HEK-Blue cells (HEK293-derived reporter line)
T1 sequence (Q9NR96 26-1032): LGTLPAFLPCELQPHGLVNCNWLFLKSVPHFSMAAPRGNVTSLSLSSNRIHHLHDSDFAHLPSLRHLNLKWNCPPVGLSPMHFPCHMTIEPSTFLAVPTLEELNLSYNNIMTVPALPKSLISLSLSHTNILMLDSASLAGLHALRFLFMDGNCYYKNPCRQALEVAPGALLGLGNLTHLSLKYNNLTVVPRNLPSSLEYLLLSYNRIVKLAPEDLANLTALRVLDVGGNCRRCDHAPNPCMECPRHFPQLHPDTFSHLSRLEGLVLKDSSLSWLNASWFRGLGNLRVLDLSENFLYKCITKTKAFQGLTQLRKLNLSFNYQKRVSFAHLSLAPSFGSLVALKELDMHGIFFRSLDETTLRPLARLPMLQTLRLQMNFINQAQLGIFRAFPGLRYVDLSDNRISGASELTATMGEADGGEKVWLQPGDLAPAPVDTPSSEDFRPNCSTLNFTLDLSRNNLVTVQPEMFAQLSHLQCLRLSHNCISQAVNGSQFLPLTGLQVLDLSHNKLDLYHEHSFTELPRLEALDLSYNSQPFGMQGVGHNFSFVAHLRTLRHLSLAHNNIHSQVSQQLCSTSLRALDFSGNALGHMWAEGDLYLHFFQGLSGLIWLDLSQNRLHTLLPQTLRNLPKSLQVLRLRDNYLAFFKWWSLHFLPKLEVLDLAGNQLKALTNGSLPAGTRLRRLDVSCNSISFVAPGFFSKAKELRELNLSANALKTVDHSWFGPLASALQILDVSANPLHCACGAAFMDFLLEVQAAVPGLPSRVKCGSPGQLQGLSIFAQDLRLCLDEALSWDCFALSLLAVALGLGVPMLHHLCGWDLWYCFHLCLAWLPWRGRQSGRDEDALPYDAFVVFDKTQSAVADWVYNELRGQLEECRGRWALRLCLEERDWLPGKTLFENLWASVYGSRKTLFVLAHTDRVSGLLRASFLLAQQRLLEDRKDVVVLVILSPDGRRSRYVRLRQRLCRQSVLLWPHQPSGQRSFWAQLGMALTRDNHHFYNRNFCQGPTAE
The test is described as follows: TLR9 inhibition reporter assay (HEK-Blue cells, SEAP reporter, ODN2006 stimulation). As to conditions: HEK-Blue cells overexpressing human TLR9, SEAP reporter, ODN2006 5 nM. The gist of the method: (§1)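 After 22 h at 37 °C, SEAP secretion was measured from human TLR7-, TLR8- or TLR9-expressing HEK-Blue reporter cells given compound (0.05 nM–50 μM) 30 min before agonist: 7.5 μM gardiquimod, 15.9 μM R848 or 5 nM ODN2006 respectively. Percent inhibition referenced to agonist-plus-DMSO and known-inhibitor wells.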

The target of a further test is T2, human TLR8 (Homo sapiens, UniProt Q9NR97).
T2 construct: host or cells: HEK-Blue cells (HEK293-derived reporter line)
T2 sequence (Q9NR97 27-1041): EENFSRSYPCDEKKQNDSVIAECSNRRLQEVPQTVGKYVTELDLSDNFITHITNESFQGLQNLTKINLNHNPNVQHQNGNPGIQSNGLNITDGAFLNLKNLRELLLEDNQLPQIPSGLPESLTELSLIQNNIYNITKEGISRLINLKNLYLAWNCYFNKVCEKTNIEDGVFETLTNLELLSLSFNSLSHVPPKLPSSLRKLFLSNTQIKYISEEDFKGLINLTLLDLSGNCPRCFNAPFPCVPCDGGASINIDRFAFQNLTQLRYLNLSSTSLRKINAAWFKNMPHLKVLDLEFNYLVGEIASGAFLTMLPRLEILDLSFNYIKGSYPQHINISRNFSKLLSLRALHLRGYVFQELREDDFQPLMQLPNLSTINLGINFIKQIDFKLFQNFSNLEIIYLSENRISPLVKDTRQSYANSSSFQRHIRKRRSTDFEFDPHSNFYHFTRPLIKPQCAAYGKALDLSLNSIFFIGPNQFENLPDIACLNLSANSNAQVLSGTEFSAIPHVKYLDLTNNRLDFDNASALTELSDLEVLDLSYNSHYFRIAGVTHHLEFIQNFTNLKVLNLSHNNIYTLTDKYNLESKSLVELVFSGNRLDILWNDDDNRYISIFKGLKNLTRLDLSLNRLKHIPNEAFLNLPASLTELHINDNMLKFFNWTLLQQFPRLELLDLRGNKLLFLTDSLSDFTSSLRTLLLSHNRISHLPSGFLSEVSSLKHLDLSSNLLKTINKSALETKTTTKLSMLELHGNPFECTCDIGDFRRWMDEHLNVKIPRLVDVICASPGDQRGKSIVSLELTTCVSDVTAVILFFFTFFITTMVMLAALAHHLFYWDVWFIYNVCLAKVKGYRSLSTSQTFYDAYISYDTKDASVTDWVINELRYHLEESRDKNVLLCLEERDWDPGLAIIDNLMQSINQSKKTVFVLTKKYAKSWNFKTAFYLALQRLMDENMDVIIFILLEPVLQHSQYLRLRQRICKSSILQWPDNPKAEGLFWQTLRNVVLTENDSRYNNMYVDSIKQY
The test is described as follows: TLR8 inhibition reporter assay (HEK-Blue cells, SEAP reporter, R848 stimulation). As to conditions: HEK-Blue cells overexpressing human TLR8, SEAP reporter, R848 15.9 μM. The gist of the method: as §1
On the technique in general: Reporter assays use an easily measured gene product as a stand-in for the process of interest.

The target of a further test is T3, human TLR7 (Homo sapiens, UniProt Q9NYK1).
T3 construct: host or cells: HEK-Blue cells (HEK293-derived reporter line)
T3 sequence (Q9NYK1 27-1049): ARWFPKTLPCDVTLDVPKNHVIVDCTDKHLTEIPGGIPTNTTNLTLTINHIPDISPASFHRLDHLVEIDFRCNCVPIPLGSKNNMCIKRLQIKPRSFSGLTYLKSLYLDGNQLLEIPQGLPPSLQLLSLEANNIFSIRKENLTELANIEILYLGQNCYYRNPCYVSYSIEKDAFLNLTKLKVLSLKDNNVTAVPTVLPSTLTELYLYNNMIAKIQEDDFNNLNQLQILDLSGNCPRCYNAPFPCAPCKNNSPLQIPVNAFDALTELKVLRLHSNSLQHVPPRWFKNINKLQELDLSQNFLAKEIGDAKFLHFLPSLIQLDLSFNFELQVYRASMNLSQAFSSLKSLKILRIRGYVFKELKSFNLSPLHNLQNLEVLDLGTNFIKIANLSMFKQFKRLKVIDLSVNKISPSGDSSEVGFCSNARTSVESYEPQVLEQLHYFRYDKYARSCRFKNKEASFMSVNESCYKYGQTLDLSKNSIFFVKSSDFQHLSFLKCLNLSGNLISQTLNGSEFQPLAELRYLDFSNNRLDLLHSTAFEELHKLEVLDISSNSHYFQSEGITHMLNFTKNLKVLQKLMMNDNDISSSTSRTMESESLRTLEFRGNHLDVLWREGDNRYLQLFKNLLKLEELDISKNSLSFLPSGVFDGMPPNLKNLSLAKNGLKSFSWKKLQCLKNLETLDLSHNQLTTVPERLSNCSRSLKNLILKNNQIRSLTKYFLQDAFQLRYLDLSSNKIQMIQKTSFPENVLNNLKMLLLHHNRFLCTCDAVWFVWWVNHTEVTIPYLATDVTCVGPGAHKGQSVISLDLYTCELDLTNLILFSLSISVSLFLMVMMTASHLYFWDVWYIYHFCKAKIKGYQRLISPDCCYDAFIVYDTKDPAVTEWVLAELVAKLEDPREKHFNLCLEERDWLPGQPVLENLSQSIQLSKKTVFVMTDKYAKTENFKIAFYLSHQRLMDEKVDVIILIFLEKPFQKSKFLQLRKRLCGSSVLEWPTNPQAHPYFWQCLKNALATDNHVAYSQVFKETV
The test is described as follows: TLR7 inhibition reporter assay (HEK-Blue cells, SEAP reporter, gardiquimod stimulation). As to conditions: HEK-Blue cells overexpressing human TLR7, SEAP reporter, gardiquimod 7.5 μM. The gist of the method:
as §1

In the case of `CC(C)c1c(-c2cc(C(C)(C)O)c3nccn3c2)[nH]c2ccc(C3CCNCC3)cc12` [Example 134, 2-(6-(3-isopropyl-5-(piperidin-4-yl)-1H-indol-2-yl)imidazo[1,2-a]pyridin-8-yl)propan-2-ol], the figures for the IC50 against human TLR9, at human TLR8 and at human TLR7 were 100 to 1000 nM, 100 to 1000 nM and under 100 nM, respectively.

For `CC(C)c1c(-c2cn3ccnc3cc2C(F)(F)F)[nH]c2ccc(C3CCNCC3)cc12` [Example 135, 6-(3-isopropyl-5-(piperidin-4-yl)-1H-indol-2-yl)-7-(trifluoromethyl)imidazo[1,2-a]pyridine], the values for the half-inhibitory concentration (IC50) against human TLR9, against human TLR8 and on human TLR7 were 1000 to 50000 nM, under 100 nM and 100 to 1000 nM, respectively.

As for `CC(C)c1c(-c2cc(C(F)(F)F)c3nccn3c2)[nH]c2ccc(C3CCNCC3)cc12` [Example 136, 6-(3-isopropyl-5-(piperidin-4-yl)-1H-indol-2-yl)-8-(trifluoromethyl)imidazo[1,2-a]pyridine], the IC50 – broadly, the concentration at which inhibition is half-maximal – is 100 to 1000 nM at human TLR9, under 100 nM on human TLR8 and under 100 nM on human TLR7.

For `Cc1cn2cc(-c3[nH]c4ccc(C5CCNCC5)cc4c3C(C)C)cc(C(F)(F)F)c2n1` [Example 137, 6-(3-isopropyl-5-(piperidin-4-yl)-1H-indol-2-yl)-2-methyl-8-(trifluoromethyl)imidazo[1,2-a]pyridine], the figures for the IC50 on human TLR9, at human TLR8 and at human TLR7 were 100 to 1000 nM, 100 to 1000 nM and under 100 nM, respectively.

Turning to `Cc1cc(-c2[nH]c3ccc(C4CCNCC4)cc3c2C(C)C)cc2cn(C)nc12` [Example 138, 5-(3-isopropyl-5-(piperidin-4-yl)-1H-indol-2-yl)-2,7-dimethyl-2H-indazole], the figures for the 50% inhibitory concentration (IC50) at human TLR9, on human TLR8 and at human TLR7 were 1000 to 50000 nM, under 100 nM and under 100 nM, respectively.

As to `CC(C)c1c(-c2cc(Cl)c3ncccc3c2)[nH]c2ccc(C3CCNCC3)cc12` [Example 139, 8-chloro-6-(3-isopropyl-5-(piperidin-4-yl)-1H-indol-2-yl)quinoline], the IC50 is 1000 to 50000 nM against human TLR9, under 100 nM at human TLR8 and under 100 nM against human TLR7.

As to `Cc1cc2ncccc2cc1-c1[nH]c2ccc(C3CCNCC3)cc2c1C(C)C` [Example 140, 6-(3-isopropyl-5-(piperidin-4-yl)-1H-indol-2-yl)-7-methylquinoline], the IC50 was 1000 to 50000 nM against human TLR9, 100 to 1000 nM against human TLR8 and under 100 nM on human TLR7.

`Cc1cc(-c2[nH]c3ccc(C4CCNCC4)cc3c2C(C)C)cc2cccnc12` [Example 141, 6-(3-isopropyl-5-(piperidin-4-yl)-1H-indol-2-yl)-8-methylquinoline]: the IC50 was 1000 to 50000 nM against human TLR9, under 100 nM at human TLR8 and under 100 nM against human TLR7.

As to `Cc1cc2cc(-c3[nH]c4ccc(C5CCNCC5)cc4c3C(C)C)cc(C)n2n1` [Example 142, 5-(3-isopropyl-5-(piperidin-4-yl)-1H-indol-2-yl)-2,7-dimethylpyrazolo[1,5-a]pyridine], the IC50 was 1000 to 50000 nM against human TLR9, under 100 nM at human TLR8 and under 100 nM against human TLR7.

On to `Cc1cc(-c2[nH]c3ccc(C4CCNCC4)cc3c2C(C)C)cc2ccnn12` [Example 143, 5-(3-isopropyl-5-(piperidin-4-yl)-1H-indol-2-yl)-7-methylpyrazolo[1,5-a]pyridine], for which the IC50 at human TLR9 was 1000 to 50000 nM; against human TLR8, under 100 nM; against human TLR7 it was under 100 nM.

Turning to `Cc1cc2cc(-c3[nH]c4ccc(C5CCNCC5)cc4c3C(C)C)cc(CC(C)C)n2n1` [Example 144, 7-isobutyl-5-(3-isopropyl-5-(piperidin-4-yl)-1H-indol-2-yl)-2-methylpyrazolo[1,5-a]pyridine], the IC50 on human TLR9 is 1000 to 50000 nM; at human TLR8, over 3130 nM; against human TLR7, over 3130 nM.

With `Cc1cc2cc(-c3[nH]c4ccc(C5CCNCC5)cc4c3C(C)C)ccn2n1` [Example 145, 5-(3-isopropyl-5-(piperidin-4-yl)-1H-indol-2-yl)-2-methylpyrazolo[1,5-a]pyridine], the results for the IC50 against human TLR9, against human TLR8 and against human TLR7 were 1000 to 50000 nM, 1000 to 50000 nM and under 100 nM, respectively.

As to `Cc1nn2ccc(-c3[nH]c4ccc(C5CCNCC5)cc4c3C(C)C)cc2c1F` [Example 146, 3-fluoro-5-(3-isopropyl-5-(piperidin-4-yl)-1H-indol-2-yl)-2-methylpyrazolo[1,5-a]pyridine], the IC50 is over 50000 nM on human TLR9, 100 to 1000 nM on human TLR8 and under 100 nM against human TLR7.

Consider `CC(C)c1c(-c2nc3ccnn3cc2F)[nH]c2ccc(C3CCNCC3)cc12` [Example 147, 6-fluoro-5-(3-isopropyl-5-(piperidin-4-yl)-1H-indol-2-yl)pyrazolo[1,5-a]pyrimidine], for which the IC50 is 1000 to 50000 nM against human TLR9, under 100 nM at human TLR8 and under 100 nM on human TLR7.
